Measured values as given in patent publication US20070197538A1, “Anti-vascular and anti-proliferation methods, therapies, and combinations employing specific tyrosine kinase inhibitors” (priority 2004, published 2007).
Structures can show the parent of a compound that is named as a salt. Blank lines part the entries; values can stand above or below the molecule they belong to.

How the values were obtained:
[1] = test system: Mouse endothelial cells from pancreas; experiment: sensitivity of pancreas endothelial cells to Taxotere cytotoxicity; format: cell-based; settings: with Taxotere; for sensitivity of endothelial cells to cytotoxicity mediated by Taxotere: cells at 33° C.
Procedure: Mouse endothelial cells from pancreas are maintained in culture at a temperature 33° C. where they are actively dividing.

L3.6 pL pancreatic tumor = experiment: orthotopic human pancreatic cancer L3.6 pL in nude mice; format: in vivo; settings: combination with Taxotere; for survival rate: 4-6 weeks; for effect of the combination in cancer refractory to chemotherapy: tumor cells resistant to Taxotere (MDR cells)
Procedure: A pancreatic tumor which is shown to upregulate expression of PDGF AA, BB, A/B at metastatic sites is used for the in vivo studies. Other tumor systems that are known to upregulate expression of PDGF may also be used such as ovarian cancer, prostate cancer, bone metastasis, or breast cancer bone metastasis.
Tumor cells L3.6 pL derived from pancreatic cancer are injected into the pancreas of nude mice. The tumors are grown into detectable lesions.
Two days later, the mice are killed and the organs with and without tumors harvested, fixed, and immunostained to evaluate expression of PDGF AA, BB, A/B, PDGF-R (α,β) and status of phosphorylation of PDGF-R (α,β) on tumor cells and organ-specific endothelial cells.
The surviving mice are then killed and the size of tumor and metastasis is measured. Fixation of the tissues and staining of the tumor cells are performed. Endothelial cells are examined for division (PCNA), apoptosis (TUNEL), CD31 (endothelial cells). Expression of PDGF AA, BB, A/B, and phosphorylation of PDGF-Rα/β are further studied in these endothelial cells.

MV4;11 cells = experiment: intravenous MV4;11 leukemia model in NOD-SCID mice; format: in vivo; settings: for large infiltrating cells with mitotic figures in bone marrow: H&E-stained sections; for large infiltrating cells with mitotic figures in bone marrow / CD45 positive cells in bone marrow: oral 50-200 mg/kg; for CD45 positive cells in bone marrow: flow cytometry; for survival: oral, 50-200 mg/kg, once daily or 3 times per week
Procedure: In a subset of animals, bone marrow cell suspensions are prepared by flushing mouse femurs with cold sterile PBS, at experimental timepoints (within 90 days of implantation).

[2] = test system: blastic phase chronic myelogenous leukemia (CML); settings: two trials, total of 304 patients; cited from earlier work
accelerated phase CML = settings: at 24 months; cited from earlier work
Lck = molecular target: T1, Lck (Homo sapiens, UniProt P06239); settings: literature; cited from earlier work
T1 construct: host or cells: baculovirus system
T1 sequence (P06239 whole entry): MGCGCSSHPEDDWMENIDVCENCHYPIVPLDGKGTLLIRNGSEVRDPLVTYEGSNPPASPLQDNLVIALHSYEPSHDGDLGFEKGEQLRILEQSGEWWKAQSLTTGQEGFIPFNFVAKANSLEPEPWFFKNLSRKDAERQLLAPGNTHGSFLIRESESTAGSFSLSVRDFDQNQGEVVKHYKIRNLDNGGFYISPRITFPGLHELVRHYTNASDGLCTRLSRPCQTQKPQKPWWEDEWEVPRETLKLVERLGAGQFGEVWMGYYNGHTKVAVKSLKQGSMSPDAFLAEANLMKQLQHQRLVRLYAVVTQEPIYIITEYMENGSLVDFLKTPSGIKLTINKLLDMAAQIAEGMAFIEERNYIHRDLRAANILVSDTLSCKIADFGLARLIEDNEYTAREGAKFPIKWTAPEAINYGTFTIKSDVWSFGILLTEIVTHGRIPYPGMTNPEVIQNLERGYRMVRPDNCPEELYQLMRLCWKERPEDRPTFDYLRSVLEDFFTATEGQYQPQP

FYN = FYN (Homo sapiens, UniProt P06241); settings: literature; cited from earlier work
FYN, sequence (P06241 whole entry, species assumed): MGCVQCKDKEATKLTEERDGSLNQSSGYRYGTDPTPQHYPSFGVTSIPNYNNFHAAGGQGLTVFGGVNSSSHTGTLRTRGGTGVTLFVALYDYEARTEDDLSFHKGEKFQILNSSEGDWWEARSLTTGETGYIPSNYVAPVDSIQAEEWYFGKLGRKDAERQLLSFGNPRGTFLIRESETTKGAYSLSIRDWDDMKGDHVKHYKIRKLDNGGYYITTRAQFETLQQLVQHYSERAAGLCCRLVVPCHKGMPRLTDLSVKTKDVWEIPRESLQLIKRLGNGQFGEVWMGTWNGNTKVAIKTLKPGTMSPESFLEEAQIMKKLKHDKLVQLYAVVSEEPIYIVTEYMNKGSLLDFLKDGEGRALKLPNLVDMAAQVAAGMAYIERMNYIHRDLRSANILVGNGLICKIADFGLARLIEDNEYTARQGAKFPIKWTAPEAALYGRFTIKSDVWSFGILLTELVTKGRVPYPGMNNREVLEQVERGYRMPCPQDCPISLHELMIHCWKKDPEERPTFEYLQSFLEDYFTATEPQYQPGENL

[3] = test system: RS4-11 cells (FLT3-wild type); experiment: RS4-11 cell growth, luminescence assay at 72 hours; format: cell-based, human; settings: with or without 100 ng/mL FLT3 ligand, FIGS. 5 and 6
[4] = test system: AML193 cells (wild type FLT3); experiment: AML193 cell growth, luminescence assay at 72 hours; settings: with or without 100 ng/mL FLT3 ligand, GN963 at concentrations used (30 μM), FIGS. 3 and 4

SMILES: CC(C)Oc1ccc2nc(Nc3ccccc3)cnc2c1.Cl
- melting point: 205 to 210 °C (dec.)

SMILES: COc1cc2ncc(N[C@@H]3CC[C@@H](O)[C@H](C)C3)nc2cc1OC (stereo in doubt) [GN271, (1R,2R,4R)-4-(6,7-dimethoxy-quinoxalin-2-ylamino)-2-methyl-cyclohexanol]
- resistance of organ-specific endothelial cells to Taxotere increased by pancreatic tumor-conditioned medium [1]: reversal of this increased resistance
- sensitivity of endothelial cells to cytotoxicity mediated by Taxotere [1]: increases sensitivity of endothelial cells to cytotoxicity mediated by Taxotere
- survival rate (L3.6 pL pancreatic tumor): higher survival rate
- effect of the combination in cancer refractory to chemotherapy (L3.6 pL pancreatic tumor): synergistic effect
- large infiltrating cells with mitotic figures in bone marrow (MV4;11 cells): reduced numbers of large infiltrating cells with mitotic figures
- CD45 positive cells in bone marrow (MV4;11 cells): reduced numbers of CD45 positive cells
- survival (MV4;11 cells): prolonged survival

SMILES: COc1cc2ncc(OC3CCCCC3)nc2cc1OC1CCCCC1 [Example 6, 2,7-Bis-cyclohexyloxy-6-methoxy-quinoxaline]
- melting point: 75 to 78 °C

SMILES: COc1cc2ncc(OC3CC4CC3C(O)C4O)nc2cc1OC (centres unmarked) [Example 17, 5-(6,7-Dimethoxyquinoxalin-2-yloxy)-bicyclo [2.2.1]heptane-2,3-diol]
- melting point: 85 to 88 °C

SMILES: COc1cc2ncc(OC3CCC(OC(=O)N(C)C)CC3)nc2cc1OC (centres unmarked) [Example 19, Dimethyl-carbamic acid 4-(6,7-dimethoxyquinoxalin-2-yloxy)-cyclohexyl ester]
- melting point: 152 to 155 °C

SMILES: COc1cc2ncc(N[C@H]3CC[C@H](OC(C)=O)CC3)nc2cc1OC [Example 21, Acetic acid trans-4-(6,7-dimethoxyquinoxalin-2-ylamino)-cyclohexyl ester]
- melting point: 176 to 177 °C

SMILES: COc1cc2ncc(N[C@@H]3C[C@@H]4C[C@H]3C[C@H]4O)nc2cc1OC [GN804, (1S,2R,4S,5R)-5-(6,7-Dimethoxyquinoxalin-2-ylamino)-Bicyclo[2.2.1]heptan-2-ol]
- resistance of organ-specific endothelial cells to Taxotere increased by pancreatic tumor-conditioned medium [1]: reversal of this increased resistance
- sensitivity of endothelial cells to cytotoxicity mediated by Taxotere [1]: increases sensitivity of endothelial cells to cytotoxicity mediated by Taxotere
- survival rate (L3.6 pL pancreatic tumor): higher survival rate
- effect of the combination in cancer refractory to chemotherapy (L3.6 pL pancreatic tumor): synergistic effect
- large infiltrating cells with mitotic figures in bone marrow (MV4;11 cells): reduced numbers of large infiltrating cells with mitotic figures
- CD45 positive cells in bone marrow (MV4;11 cells): reduced numbers of CD45 positive cells
- survival (MV4;11 cells): prolonged survival

SMILES: Cc1ccc(NC(=O)c2ccc(CN3CCN(C)CC3)cc2)cc1Nc1nccc(-c2cccnc2)n1 [Gleevec, imatinib mesylate]
- estimated 1-year survival [2]: under 35%
- major cytogenetic response rate [2]: 16%
- incidence of disease progression (accelerated phase CML): 50%

SMILES: Cc1ccc(-c2nn(C(C)(C)C)c3ncnc(N)c23)cc1 [PP1]
- LCK inhibitory potency (Lck): low nanomolar potency
- FYN inhibitory potency (FYN): low nanomolar potency

SMILES: CN[C@@H]1C[C@H]2O[C@@](C)([C@@H]1OC)n1c3ccccc3c3c4c(c5c6ccccc6n2c5c31)C(=O)NC4 [staurosporine, reference compound]
- effect on RS4-11 cell growth [3]: inhibits RS4-11 cell growth
- effect on AML193 cell growth [4]: inhibits AML193 cell growth

Further lines, results first:

- melting point: 185 to 190 °C (dec.)
SMILES: COc1cc2ncc(CNC3CCCCC3)nc2cc1OC (as salt: HCl) [Example 7, Cyclohexyl-(6,7-dimethoxyquinoxalin-2-ylmethyl)-amine]

- melting point: 211 to 213 °C
SMILES: Oc1ccc2nc(Nc3ccccc3)cnc2c1 [Example 4, 2-Anilino-6-quinoxalinol]

- melting point: 173 to 175 °C
SMILES: c1ccc(Nc2cnc3cc(O[C@@H]4CCOC4)ccc3n2)cc1 [Example 5, Phenyl-[6-(tetrahydrofuran-3-(R)-yl-oxy)quinoxalin-2-yl]amine]

- melting point: 170 to 173.5 °C
SMILES: COc1cc2cc(NCC(C)(C)CO)cnc2cc1OC [Example 9, 3-(6,7-Dimethoxyquinolin-3-yl-amino)-2,2-dimethyl-propan-1-ol]

- melting point: 194 to 196 °C
SMILES: COc1cc2ncc(NC3CCCCC3)nc2cc1N1CCOCC1 [Example 10, Cyclohexyl-(6-methoxy-7-morpholin-4-yl-quinoxalin-2-yl)-amine]

- melting point: 184 to 186 °C
SMILES: COc1cc2ncc(N[C@@H]3C[C@H]4CC[C@@H]3C4)nc2cc1OC [Example 25, (1R,2R,4S)-(+)-Bicyclo[2.2.1]hept-2-yl-(6,7-dimethoxyquinoxalin-2-yl)-amine]
